Values of other authors as cited in patent publication US7079956B2, “Crystal structure of antibiotics bound to the 30S ribosome and its use” (Medical Research Council, priority 2000, dated 2006).

Settings: literature values: Ross et al. 1998 (tetracycline), Cohen et al. 1969 (pactamycin), Cabanas et al. 1978 (hygromycin B)

Row | SMILES | minimum inhibitory concentration
1 | CN[C@H]1C[C@@H](N)[C@H](O)[C@@H](O[C@@H]2O[C@H](CO)[C@H](O)[C@@H]3OC4(O[C@H]23)O[C@H]([C@@H](N)CO)[C@H](O)[C@H](O)[C@H]4O)[C@@H]1O (stereo partly drawn) [hygromycin B, O-6-amino-6-deoxy-L-glycero-D-galacto-heptopyranosylidene-(12-3)-O-D-talopyranosyl-(15)-2-deoxy-N3-methyl-D-streptamine] | around 6 μM
2 | CC(=O)c1cccc(NC2C(N)C(NC(=O)N(C)C)(C(C)O)C(C)(O)C2(O)COC(=O)c2c(C)cccc2O)c1 (centres unmarked) [pactamycin, 2-hydroxy-6-methylbenzoic acid [5-[(3-acetylphenyl)amino]-4-amino-3-[[(dimethylamino)-carbonyl]amino]-1,2-dihydroxy-3-(1-hydroxy-ethyl)-2-methylcyclopentyl]methyl ester] | 8 to 80 µM
